The source of these data is PMC10518658, “Dual activity of indolin-2-ones containing an arylidene motif: DNA and BSA interaction” (RSC Advances, 2023).

In this experiment the target is T1, bovine serum albumin (BSA) (Bos taurus, UniProt P02769).
T1 construct: gene ALB
Nature of the experiment: fluorescence emission titration (BSA quenching, excitation […] nm), double-log plot; value is Ka, n = […]. Format: binding. The conditions noted are these: read-out: fluorescence emission titration (BSA quenching, excitation 287 nm), double-log p (converted).

T1 sequence (P02769 25-607): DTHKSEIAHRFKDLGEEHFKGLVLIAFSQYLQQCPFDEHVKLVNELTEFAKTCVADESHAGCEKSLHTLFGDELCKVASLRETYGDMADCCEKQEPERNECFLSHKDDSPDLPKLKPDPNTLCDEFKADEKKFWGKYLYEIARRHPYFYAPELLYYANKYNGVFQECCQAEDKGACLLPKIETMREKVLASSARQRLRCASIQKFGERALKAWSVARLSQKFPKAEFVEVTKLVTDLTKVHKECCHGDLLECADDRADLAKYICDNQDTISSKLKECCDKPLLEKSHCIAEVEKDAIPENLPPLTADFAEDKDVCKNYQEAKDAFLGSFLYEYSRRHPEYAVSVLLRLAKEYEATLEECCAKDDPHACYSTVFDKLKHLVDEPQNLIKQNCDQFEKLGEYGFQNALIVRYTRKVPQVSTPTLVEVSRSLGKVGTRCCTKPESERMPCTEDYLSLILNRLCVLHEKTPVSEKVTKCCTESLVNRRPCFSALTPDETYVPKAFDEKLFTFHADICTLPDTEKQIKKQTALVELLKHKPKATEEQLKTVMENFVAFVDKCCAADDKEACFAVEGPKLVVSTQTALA

On to `C=CCN1C(=O)C(=CC(=O)c2cccc(N)c2)c2ccccc21` [4d, 1-Allyl-3-(2-(3-aminophenyl)-2-oxoethylidene)indolin-2-one], for which the Kd was 0.164 µM.
